From patent US4524067A, “Soybean saponins, and a method of isolating the same” (Osaka Chemical Laboratory Co., Ltd., priority 1979, dated 1985)
Like-named read-outs stand apart in the source and are kept apart here. Values belong to the compound of their own block, whether it stands above or below them.

Assays:
[1] = tested on: lipid peroxides in the heart; test: Inhibition of formation of lipid peroxides in the heart of Adreamycin-treated mice; assay type: in vivo, mice (COF male); conditions: for Lipid peroxide, heart / Rate of inhibition, heart: n = 5
Method: (§1) It is widely known that Adreamycin, which is an oncostatic, inhibits the synthesis of DNA by combining therewith, and the metabolism of lipids in the heart to cause deposition of lipid peroxides therein, leading to miocardosis.
(§2) (1) The tests were conducted with groups of five COF male mice, five week old, weighing 20 to 25 g each. 15 mg/kg of Adreamycin (product of Kyowa Hakko Kogyo, Japan) were intraperitoneally injected into each mouse (0.15 ml of the medicine per 10 g of mouse weight).
(§3) The administration of each of the medicines to be tested as shown in Table 1 below was started one day prior to the administration of Adreamycin, and continued intraperitoneally for five days at a rate of 0.10 ml per 10 g of mouse weight. All the medicines tested were suspended or emulsified (only vitamin E) in a 0.9% physiological solution of sodium chloride, or a 0.9% physiological solution of sodium chloride containing 1% of Tween 80 immediately before they were applied. All the medicines tested were administered at noon every day, and Adreamycin was given three hours after the administration of the medicines tested. The saponin component of this invention was given in the amount of 1,000 mg/kg, 500 mg/kg, 125 mg/kg, 50 mg/kg, 25 mg/kg and 12.5 mg/kg, vitamin E in the amount of 1,000 mg/kg and 250 mg/kg, and vitamin B2 in the amount of 1,000 mg/kg, while a 0.9% physiological solution of sodium chloride was given to the mice of the control group.
(§4) (2) On the sixth day, each mouse was killed by dislocation of the cervical vertebrae, and its heart and liver were picked out immediately. After their wet weights were measured, a 2% homogenate was prepared with a 0.9% physiological solution of sodium chloride by a Potter homogenizer made of Teflon while it was being cooled with ice.
(§5) 0.5 ml of a 3% aqueous solution of sodium lauryl sulfate was added into 0.2 ml of the aforementioned 2% homogenate, and they were mixed together by shaking for 30 seconds. Then, 1.5 ml of an acetic acid buffer solution having a pH value of 3.6, and 1.5 ml of a 0.8% solution of thiobarbituric acid were added thereinto, followed by addition of distilled water to make a total of 4.0 ml. After the resulting solution was shaked vigorously for 30 seconds, it was heated at 95° C. for an hour in an oil bath, and cooled with flowing water for five minutes. Then, 1.0 ml of 0.2N hydrochloric acid and 5.0 ml of a mixed solution of n-butanol and pyridine (15:1) were added into the solution, and after it was shaked violently, it was subjected to centrifugal separation at 3,000 rpm for 15 minutes, whereby the top n-butanol layer was separated, and its fluorescence spectrum was measured by a spectrophotofluorometer (Ex 515 nm and Em 553 nm). […] The quantity of lipid peroxides was obtained by applying the working curve to the values as actually measured.
(§6) The rate of inhibition of the formation of lipid peroxides was obtained in accordance with the following equation to compare the effects of the various medicines tested, and the quantities thereof employed, as shown in Table 1: [formula] wherein A: the concentration of lipid peroxides in the group of mice to which no Adreamycin had been given;
(§7) D: the concentration of lipid peroxides in the groups of mice to which both Adreamycin and the medicines to be tested had been administered.
(§8) Note: The rate of inhibition by each dosage was calculated by comparison with the values shown for the respective test numbers in the control group (i.e., applying the values of C shown for the control group).

Solubility = assay type: physicochemical
[2] = pH / acidity of aqueous solution; assay type: physicochemical
[3] = Antioxidizing action for salad oil (lipid peroxide, Yagi's method); conditions: 180° C. for 40 min.
Method: Salad oil: Product of Nisshin Seiyu Co., Ltd., Japan.
Test oils were prepared by using various kinds of saponin components which were added into the salad oil in the amounts of 1 mg/ml and 0.1 mg/ml. These test oils and a control oil containing no saponin component were heated at 180° C. for 40 minutes, while oxygen was being blown thereinto. After they were cooled, the quantities of the lipid peroxides formed in the oils were determined by the Yagi's method [K. Yagi, Biochemie.

[4] = tested on: lipid peroxides in the liver; test: Inhibition of formation of lipid peroxides in the liver of Adreamycin-treated mice; assay type: in vivo, mice (COF male); conditions: n = 5
Method: as §1, §2, §3, §4, §5, §6, §7, §8

[5] = tested on: formation of lipid peroxides; conditions: prior art statement, cited from earlier work
[6] = prior art statement; cited from earlier work
[7] = prior art statement; cited from earlier work; remark: listed apart in the source

SMILES: COc1cccc2c1C(=O)c1c(O)c3c(c(O)c1C2=O)C[C@@](O)(C(=O)CO)C[C@@H]3O[C@H]1C[C@H](N)[C@H](O)[C@H](C)O1 [Adreamycin]
Effect of Adreamycin on lipid peroxides ([1]; 15 mg/kg i.p., heart and liver, mice): increases the lipid peroxides in the heart and liver

pH value of aqueous solution ([2]; 10 mg in 1 ml of water): 6
SMILES: CC1(C)C[C@H]2C3=CC[C@@H]4[C@@]5(C)CC[C@H](O[C@@H]6O[C@H](C(=O)O)[C@@H](O)[C@H](O)[C@H]6O[C@@H]6O[C@H](CO)[C@H](O)[C@H](O)[C@H]6O[C@@H]6O[C@H](CO)[C@@H](O)[C@H](O)[C@H]6O)[C@](C)(CO)[C@@H]5CC[C@@]4(C)[C@]3(C)CC[C@@]2(C)[C@H](O[C@@H]2OC[C@H](O)[C@H](O[C@@H]3O[C@H](CO)[C@@H](O)[C@H](O)[C@H]3O)[C@H]2O)[C@@H]1O [Soyasaponin A1, 3-O-[β-D-glucopyranosyl(1→2)-β-D-galactopyranosyl-(1→2)-β-D-glucuronopyranosyl]-22-O-[β-D-glucopyranosyl(1→3)-α-L-arabinopyranosyl]-soyasapogenol A]
Solubility (Solubility): easily soluble in methanol, soluble in water, pyridine, dimethyl sulfoxide and ethanol, and insoluble in acetone, chloroform and ether
Quantity of lipid peroxide ([3]; 0.1 mg/ml): 22.5 nmol/mL
Rate of inhibition of increase in lipid peroxide ([3]; 0.1 mg/ml): 74.8%
Quantity of lipid peroxide ([3]; 1 mg/ml): 13.8 nmol/mL
Rate of inhibition of increase in lipid peroxide ([3]; 1 mg/ml): 91.5%

pH value of aqueous solution ([2]; 5 mg in 1 ml of water): 6
SMILES: CC1(C)C[C@H]2C3=CC[C@@H]4[C@@]5(C)CC[C@H](O[C@@H]6O[C@H](C(=O)O)[C@@H](O)[C@H](O)[C@H]6O[C@@H]6O[C@H](CO)[C@H](O)[C@H](O)[C@H]6O)[C@](C)(CO)[C@@H]5CC[C@@]4(C)[C@]3(C)CC[C@@]2(C)[C@H](O[C@@H]2OC[C@H](O)[C@H](O[C@@H]3O[C@H](CO)[C@@H](O)[C@H](O)[C@H]3O)[C@H]2O)[C@@H]1O [Soyasaponin A2, 3-O-[β-D-galactopyranosyl-(1→2)-β-D-glucuronopyranosyl]-22-O-[β-D-glucopyranosyl (1→3)-α-L-arabinopyranosyl]-soyasapogenol A]
Solubility (Solubility): easily soluble in methanol, soluble in water, pyridine, dimethyl sulfoxide and ethanol, and insoluble in acetone, chloroform and ether
Quantity of lipid peroxide ([3]; 0.1 mg/ml): 60.0 nmol/mL
Rate of inhibition of increase in lipid peroxide ([3]; 0.1 mg/ml): 2.5%
Quantity of lipid peroxide ([3]; 1 mg/ml): 38.8 nmol/mL
Rate of inhibition of increase in lipid peroxide ([3]; 1 mg/ml): 43.4%

SMILES: C[C@@H]1O[C@@H](O[C@H]2[C@H](O[C@H]3[C@H](O[C@H]4CC[C@@]5(C)[C@@H](CC[C@]6(C)[C@@H]5CC=C5[C@@H]7CC(C)(C)C[C@@H](O)[C@]7(C)CC[C@]56C)[C@@]4(C)CO)O[C@H](C(=O)O)[C@@H](O)[C@@H]3O)O[C@H](CO)[C@H](O)[C@@H]2O)[C@H](O)[C@H](O)[C@H]1O [Soyasaponin I, 3-O-[α-L-rhamnopyranosyl(1→2)-β-D-galactopyranosyl(1→2)-β-D-glucuronopyranosyl]-soyasapogenol B]
Quantity of lipid peroxide ([3]; 0.1 mg/ml): 45.6 nmol/mL
Rate of inhibition of increase in lipid peroxide ([3]; 0.1 mg/ml): 30.3%
Quantity of lipid peroxide ([3]; 1 mg/ml): 10.6 nmol/mL
Rate of inhibition of increase in lipid peroxide ([3]; 1 mg/ml): 97.7%

SMILES: C[C@@H]1O[C@@H](O[C@H]2[C@H](O[C@H]3[C@H](O[C@H]4CC[C@@]5(C)[C@@H](CC[C@]6(C)[C@@H]5CC=C5[C@@H]7CC(C)(C)C[C@@H](O)[C@]7(C)CC[C@]56C)[C@@]4(C)CO)O[C@H](C(=O)O)[C@@H](O)[C@@H]3O)OC[C@H](O)[C@@H]2O)[C@H](O)[C@H](O)[C@H]1O [Soyasaponin II, 3-O-[α-L-rhamnopyranosyl(1→2)-α-L-arabinopyranosyl(1→2)-β-D-glucuronopyranosyl]-soyasapogenol B]
Quantity of lipid peroxide ([3]; 0.1 mg/ml): 46.3 nmol/mL
Rate of inhibition of increase in lipid peroxide ([3]; 0.1 mg/ml): 28.9%
Quantity of lipid peroxide ([3]; 1 mg/ml): 80.6 nmol/mL
Rate of inhibition of increase in lipid peroxide ([3]; 1 mg/ml): -37.2%

SMILES: CC1(C)C[C@@H](O)[C@]2(C)CC[C@]3(C)C(=CC[C@@H]4[C@@]5(C)CC[C@H](O[C@@H]6O[C@H](C(=O)O)[C@@H](O)[C@H](O)[C@H]6O[C@@H]6O[C@H](CO)[C@H](O)[C@H](O)[C@H]6O)[C@](C)(CO)[C@@H]5CC[C@]43C)[C@@H]2C1 [Soyasaponin III, 3-O-[β-D-galactopyranosyl(1→2)-β-D-glucuronopyranosyl]-soyasapogenol B]
Quantity of lipid peroxide ([3]; 0.1 mg/ml): 45.6 nmol/mL
Rate of inhibition of increase in lipid peroxide ([3]; 0.1 mg/ml): 30.3%
Quantity of lipid peroxide ([3]; 1 mg/ml): 8.8 nmol/mL
Rate of inhibition of increase in lipid peroxide ([3]; 1 mg/ml): 101.2%

SMILES: Cc1cc2nc3c(=O)[nH]c(=O)nc-3n(C[C@H](O)[C@H](O)[C@H](O)CO)c2cc1C [Vitamin B2, riboflavin]
Lipid peroxide, liver ([4]; 1000 mg/kg i.p., test No. I): 124.84 ± 10.26 nmol/g
Rate of inhibition, liver ([4]; 1000 mg/kg i.p., test No. I): 21.28
Lipid peroxide, heart ([1]; 1000 mg/kg i.p., test No. I): 153.61 ± 11.12 nmol/g
Rate of inhibition, heart ([1]; 1000 mg/kg i.p., test No. I): 40.81
Power of inhibiting the formation of lipid peroxides ([5]; compared with vitamin E): extremely lower power of inhibiting the formation of lipid peroxides than vitamin E

SMILES: Cc1c(C)c2c(c(C)c1O)CCC(C)(CCCC(C)CCCC(C)CCCC(C)C)O2 (stereo not drawn) [Vitamin E, α-tocopherol]
Lipid peroxide, liver ([4]; 250 mg/kg i.p., test No. II): 76.90 ± 8.15 nmol/g
Rate of inhibition, liver ([4]; 250 mg/kg i.p., test No. II): 94.79
Lipid peroxide, liver ([4]; 1000 mg/kg i.p., test No. I): 89.27 ± 26.33 nmol/g
Rate of inhibition, liver ([4]; 1000 mg/kg i.p., test No. I): 75.95
Storage in the body and side effects [6]: stored in the body for a long period of time, and produces side effects
Lipid peroxide, heart ([1]; 250 mg/kg i.p., test No. II): 86.34 ± 12.61 nmol/g
Rate of inhibition, heart ([1]; 250 mg/kg i.p., test No. II): 101.98
Lipid peroxide, heart ([1]; 1000 mg/kg i.p., test No. I): 106.87 ± 36.40 nmol/g
Rate of inhibition, heart ([1]; 1000 mg/kg i.p., test No. I): 82.61
Effectiveness for inhibiting the formation of lipid peroxides [5]: effective agent for inhibiting the formation of lipid peroxides
Solubility [7]: insoluble in water and soluble in oil
